Reference: ChEMBL document CHEMBL1201862, “PubChem BioAssay data set” (2004)
Calls of active or inactive are those of the source.

How the values were obtained:
[1] = target: T1, Heat shock factor protein 1 (Mus musculus, UniProt P38532); assay: inhibition of MG132-induced HSE-luciferase signal, confirmation, cell-based, NIH3T3, luminescence, dose retest (AID 2382); type: functional;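 further: NIH3T3 fibroblasts with HSF1-driven luciferase reporter stressed by proteasome inhibitor MG132; luminescence from HSF1-driven luciferase expression after 8 hours of MG132 stress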
T1 sequence (P38532 whole entry): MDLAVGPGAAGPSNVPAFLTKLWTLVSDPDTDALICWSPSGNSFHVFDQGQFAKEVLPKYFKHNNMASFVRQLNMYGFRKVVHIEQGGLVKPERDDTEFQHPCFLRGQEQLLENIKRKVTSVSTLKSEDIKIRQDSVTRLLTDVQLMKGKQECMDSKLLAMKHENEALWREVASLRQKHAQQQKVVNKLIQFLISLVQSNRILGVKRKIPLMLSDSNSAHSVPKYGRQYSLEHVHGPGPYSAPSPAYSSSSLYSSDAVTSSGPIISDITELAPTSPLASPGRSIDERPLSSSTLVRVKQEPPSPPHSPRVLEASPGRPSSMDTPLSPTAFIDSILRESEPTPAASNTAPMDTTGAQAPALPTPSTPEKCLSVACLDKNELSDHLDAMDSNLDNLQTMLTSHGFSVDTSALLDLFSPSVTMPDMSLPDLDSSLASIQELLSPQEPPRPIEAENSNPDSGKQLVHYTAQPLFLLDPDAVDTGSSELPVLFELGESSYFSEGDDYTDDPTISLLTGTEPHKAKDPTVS

[2] = target: T2, RNA-binding protein pos-1 (Caenorhabditis elegans, UniProt G5EF15); assay: inhibitors of POS-1/mex-3 RNA binding, dose response, biochemical, fluorescence polarization (AID 1964);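 further: purified POS-1 fused to maltose binding protein made in E. coli; potency of compounds blocking POS-1 binding to fluorescent RNA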
T2 sequence (G5EF15 whole entry): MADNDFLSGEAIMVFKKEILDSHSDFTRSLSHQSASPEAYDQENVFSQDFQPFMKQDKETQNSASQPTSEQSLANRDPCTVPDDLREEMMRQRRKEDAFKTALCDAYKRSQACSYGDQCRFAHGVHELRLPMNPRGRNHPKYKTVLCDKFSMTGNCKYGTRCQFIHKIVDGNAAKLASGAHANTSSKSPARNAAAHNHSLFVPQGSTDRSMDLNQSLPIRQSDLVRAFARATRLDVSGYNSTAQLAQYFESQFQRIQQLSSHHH

[3] = target: T3, Zinc finger protein mex-5 (Caenorhabditis elegans, UniProt Q9XUB2); assay: MEX-5/TCR-2 RNA interaction inhibitors, dose response, biochemical, C. elegans, fluorescence polarization (AID 1960)
T3 sequence (Q9XUB2 whole entry): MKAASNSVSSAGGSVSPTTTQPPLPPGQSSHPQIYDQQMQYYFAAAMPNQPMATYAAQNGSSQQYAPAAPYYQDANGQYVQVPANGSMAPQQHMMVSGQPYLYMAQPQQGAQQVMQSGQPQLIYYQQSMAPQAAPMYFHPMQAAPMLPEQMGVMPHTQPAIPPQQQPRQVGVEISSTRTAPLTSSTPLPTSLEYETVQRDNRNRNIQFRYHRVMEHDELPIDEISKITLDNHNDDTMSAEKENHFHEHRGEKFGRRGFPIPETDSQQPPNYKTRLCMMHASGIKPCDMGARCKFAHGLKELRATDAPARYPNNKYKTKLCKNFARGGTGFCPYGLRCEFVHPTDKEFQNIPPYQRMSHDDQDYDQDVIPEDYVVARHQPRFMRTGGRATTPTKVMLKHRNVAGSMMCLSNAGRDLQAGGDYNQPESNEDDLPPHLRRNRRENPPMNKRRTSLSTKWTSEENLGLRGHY

[4] = target: T4, Rac GTPase-activating protein 1 (Homo sapiens, UniProt Q9H0H5); assay: MgcRacGAP GTPase-activating activity inhibitors, confirmation, biochemical, ADP Hunter fluorescence, primary and confirmatory (AID 624330); type: functional
T4 sequence (Q9H0H5 whole entry): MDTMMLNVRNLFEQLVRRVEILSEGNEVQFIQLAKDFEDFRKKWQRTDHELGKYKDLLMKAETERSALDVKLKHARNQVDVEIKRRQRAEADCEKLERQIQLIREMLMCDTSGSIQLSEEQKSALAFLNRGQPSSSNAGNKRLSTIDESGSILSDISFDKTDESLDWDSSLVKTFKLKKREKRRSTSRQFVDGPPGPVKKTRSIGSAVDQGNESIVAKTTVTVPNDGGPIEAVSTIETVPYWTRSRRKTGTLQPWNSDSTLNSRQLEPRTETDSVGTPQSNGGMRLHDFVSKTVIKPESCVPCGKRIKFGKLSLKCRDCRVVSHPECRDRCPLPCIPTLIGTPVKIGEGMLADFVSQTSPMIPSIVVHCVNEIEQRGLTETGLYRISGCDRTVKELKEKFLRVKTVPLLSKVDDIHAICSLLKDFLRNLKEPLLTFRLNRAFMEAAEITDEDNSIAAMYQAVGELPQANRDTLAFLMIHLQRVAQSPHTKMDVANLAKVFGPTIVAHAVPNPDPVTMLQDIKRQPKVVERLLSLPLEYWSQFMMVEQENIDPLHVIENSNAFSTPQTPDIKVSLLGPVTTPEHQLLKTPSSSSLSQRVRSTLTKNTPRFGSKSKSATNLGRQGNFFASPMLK

[5] = target: T5, Corticotropin-releasing factor receptor 2/Corticotropin-releasing factor-binding protein (Homo sapiens, UniProt P24387+Q13324); assay: activators of CRF receptor 2 with binding protein – uHTS hits, confirmation (AID 602473); type: functional; settings: read-out: EC50_Mean
T5 sequence (Q13324 whole entry): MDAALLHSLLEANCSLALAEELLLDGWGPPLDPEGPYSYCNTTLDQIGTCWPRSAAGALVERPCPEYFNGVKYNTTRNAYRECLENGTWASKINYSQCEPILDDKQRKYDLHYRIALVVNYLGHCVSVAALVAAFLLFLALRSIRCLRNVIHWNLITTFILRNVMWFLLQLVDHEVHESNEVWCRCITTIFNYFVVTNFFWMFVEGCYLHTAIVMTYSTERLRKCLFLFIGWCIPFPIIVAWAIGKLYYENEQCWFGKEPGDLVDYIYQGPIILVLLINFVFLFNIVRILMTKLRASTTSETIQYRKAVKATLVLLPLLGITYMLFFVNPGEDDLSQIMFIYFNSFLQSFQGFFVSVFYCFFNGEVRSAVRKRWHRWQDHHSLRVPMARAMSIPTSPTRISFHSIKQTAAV
T5 sequence (P24387 whole entry): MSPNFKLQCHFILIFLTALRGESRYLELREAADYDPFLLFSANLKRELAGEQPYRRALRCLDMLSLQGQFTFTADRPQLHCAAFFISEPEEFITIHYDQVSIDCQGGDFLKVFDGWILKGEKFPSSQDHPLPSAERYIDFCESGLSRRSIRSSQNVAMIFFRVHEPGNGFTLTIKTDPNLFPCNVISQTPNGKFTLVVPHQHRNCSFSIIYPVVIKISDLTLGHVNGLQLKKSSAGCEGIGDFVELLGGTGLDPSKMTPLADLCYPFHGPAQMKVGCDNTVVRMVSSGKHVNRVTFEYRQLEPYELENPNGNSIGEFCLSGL

Cytochrome P450 1A2 = target: T6, Cytochrome P450 1A2 (Homo sapiens, UniProt P05177);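 further: PubChem cytochrome P450 panel assay, CYP1A2 panel member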
T6 sequence (P05177 whole entry): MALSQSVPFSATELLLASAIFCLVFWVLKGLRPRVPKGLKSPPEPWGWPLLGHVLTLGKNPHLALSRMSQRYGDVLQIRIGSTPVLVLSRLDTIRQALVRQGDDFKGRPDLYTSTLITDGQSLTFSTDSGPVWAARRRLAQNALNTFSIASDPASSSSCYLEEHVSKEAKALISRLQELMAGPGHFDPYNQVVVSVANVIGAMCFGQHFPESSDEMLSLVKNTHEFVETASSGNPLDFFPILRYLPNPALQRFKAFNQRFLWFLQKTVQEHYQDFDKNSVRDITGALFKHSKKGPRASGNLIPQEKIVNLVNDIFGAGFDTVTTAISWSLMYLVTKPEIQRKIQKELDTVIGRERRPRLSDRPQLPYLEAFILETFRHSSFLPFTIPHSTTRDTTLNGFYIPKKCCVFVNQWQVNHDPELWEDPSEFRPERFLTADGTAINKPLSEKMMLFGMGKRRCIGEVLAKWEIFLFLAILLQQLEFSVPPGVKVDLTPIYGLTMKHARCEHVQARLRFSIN

Cytochrome P450 2C19 = Cytochrome P450 2C19 (Homo sapiens, UniProt P33261); assay: Cytochrome panel assay with activity outcomes. Panel member name: p450-cyp2c19 Compounds with AC50 equal or less than 10 uM are considered active; type: functional; settings: read-out: AC50
Cytochrome P450 2C19, sequence (P33261 whole entry): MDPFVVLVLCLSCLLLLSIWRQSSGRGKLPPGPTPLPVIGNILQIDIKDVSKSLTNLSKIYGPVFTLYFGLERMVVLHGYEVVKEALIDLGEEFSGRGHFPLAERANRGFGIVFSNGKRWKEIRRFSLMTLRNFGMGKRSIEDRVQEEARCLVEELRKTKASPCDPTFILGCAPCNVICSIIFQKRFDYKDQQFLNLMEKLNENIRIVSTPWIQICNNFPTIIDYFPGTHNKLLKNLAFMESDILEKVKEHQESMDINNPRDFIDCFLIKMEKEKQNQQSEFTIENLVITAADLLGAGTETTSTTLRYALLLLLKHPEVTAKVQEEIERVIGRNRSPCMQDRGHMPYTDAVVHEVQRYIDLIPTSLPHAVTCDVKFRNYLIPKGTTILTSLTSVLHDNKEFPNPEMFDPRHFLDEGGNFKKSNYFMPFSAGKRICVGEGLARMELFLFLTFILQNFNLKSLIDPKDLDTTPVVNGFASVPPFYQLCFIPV

## O=C(CSc1nnc(CNC(=O)c2cccs2)o1)NCc1ccc(F)cc1
[1]
  EC50: > 195 µM (not active)

## Cc1ccc2c(c1)C1C=CCC1C(C(=O)NCCCN1CCOCC1)N2 (stereo not given)
[2]
  EC50: > 300 µM (not active)
[3]
  EC50: > 300 µM (not active)

## O=C(Cc1coc2cc(O)ccc12)NNC(=O)c1cccs1
[4]
  IC50: 32.7 µM (active)

## CCN(CC)CCN1C(=O)C(O)=C(C(=O)c2cc3cccc(OC)c3o2)C1c1ccc(F)cc1 (stereo not given)
[2]
  EC50: > 300 µM (not active)
[3]
  EC50: > 300 µM (not active)

## COc1ccc2c(COC(=O)CCS(=O)(=O)c3ccc(C)cc3)cc(=O)oc2c1
[1]
  EC50: > 195 µM (not active)

## CCOc1ccccc1N1CCN(CC(=O)NC(C)c2ccccc2)CC1 (stereo not given)
[1]
  EC50: > 195 µM (not active)

## O=C(Cc1ccccc1)Nc1ccc(N2CCOCC2)cc1N1CCOCC1
[2]
  EC50: > 300 µM (not active)
[3]
  EC50: > 300 µM (not active)

## CCOc1ccc(C2=CC(c3ccccc3)n3ncnc3N2)cc1 (stereo not given)
[5]
  EC50: > 53 µM (inactive)

## COc1ccc(CCN2C(=O)NC(=O)/C(=C\Nc3ccc(NC(C)=O)cc3)C2=O)cc1OC
[2]
  EC50: > 300 µM (not active)
[3]
  EC50: > 300 µM (not active)

## COc1cc(/C=C/C(=O)OCC(=O)NCc2ccc(F)cc2)ccc1O
[4]
  IC50: 36.3 µM (active)

## CCOc1ccc(/C=N/NC(=O)C(O)c2ccccc2)c(O)c1 (stereo not given)
[1]
  EC50: > 195 µM (not active)

## Cc1oc(C(=O)O)cc1COc1ccc2c3c(c(=O)oc2c1C)CCC3
[1]
  EC50: > 195 µM (not active)

## COc1cc(/C=C/c2nc(O)c3ccccc3n2)ccc1O
[4]
  IC50: 41.4 µM (active)

## COc1ccc(NC2CCCN(C(=O)COc3ccc(C(C)=O)cc3)C2)cc1 (stereo not given)
[4]
  IC50: 84 µM (active)

## COc1ccc(CN(C)CCc2ccccn2)cc1OC
[4]
  IC50: 74.6 µM (active)

## CCOC(=O)C1CCN(C2=NC(=O)/C(=C/c3ccc(O)cc3)S2)CC1
[4]
  IC50: 21.2 µM (active)

## COc1cc(C(=O)NC(c2ccccc2)c2ccccc2)cc(OC)c1C
[2]
  EC50: > 300 µM (not active)
[3]
  EC50: > 300 µM (not active)

## CCOC(=O)c1c(NC(=O)CN2CCCCC2)sc2c1CCC(C=O)=C2Cl
[1]
  EC50: > 195 µM (not active)

## Cc1cccc(C)c1NC(=O)c1cccnc1
[1]
  EC50: > 195 µM (not active)

## COc1cc(/C=N/Nc2ccc(C(F)(F)F)cn2)ccc1O
[4]
  IC50: 36.3 µM (active)

## COCCNC(=O)Cn1cc(/C=N/NC(=O)c2ccc(Oc3ccc(O)cc3)cc2)c2ccccc21
[4]
  IC50: 53.3 µM (active)

## CC1CCC2(CC1)N=C(N)Nc1nc3ccccc3n12 (stereo not given)
Cytochrome P450 1A2
  AC50: 12.6 µM (inconclusive)
Cytochrome P450 2C19
  AC50: 17.8 µM (inconclusive)
[1]
  EC50: > 195 µM (not active)

## Cc1ccc(-c2nn[nH]n2)o1
[1]
  EC50: > 195 µM (not active)

## COc1cc(C2C(C#N)=C(N)N(N(C)C)C3=C2C(=O)CC(C)(C)C3)ccc1O (stereo not given)
[1]
  EC50: > 195 µM (not active)

## C=CCN1C(=O)NC(=O)/C(=C/C=C/Nc2ccccc2)C1=O
[2]
  EC50: > 300 µM (not active)
[3]
  EC50: > 300 µM (inconclusive)

## Cc1ccc(S(=O)(=O)NCC(=O)N(CC(=O)NCc2ccco2)Cc2ccccc2)cc1
[5]
  EC50: 10.1 µM (active)

## Cc1cc(C)c2cc(CN(CCN(C)C)C(=O)Nc3ccccc3Cl)c(O)nc2c1
[1]
  EC50: > 195 µM (not active)

## CC1(C)CC2=Nc3ccccc3NCC2=C(O)C1
[5]
  EC50: > 53 µM (inactive)

## O=C(NC(=O)c1cccc(F)c1)OC[C@@H]1CCCN2CCCC[C@H]12
[1]
  EC50: > 195 µM (not active)

## C=CCn1c(N/N=C/c2ccc(O)cc2)nc2ccccc2c1=O
[4]
  IC50: 46.8 µM (active)

## Cc1ccc(C)c(NC(=O)CCc2nnc3ccc(NCc4ccco4)nn23)c1
[1]
  EC50: > 195 µM (not active)

## Cc1nn(CC(=O)N(C)C2(C#N)CCCCC2)c(C)c1[N+](=O)[O-]
[5]
  EC50: > 53 µM (inactive)

## Cc1onc(-c2ccccc2)c1C(=O)Nc1sc2c(c1C(N)=O)CCC2
[1]
  EC50: > 195 µM (not active)

## Cc1nn(C(C)C(=O)NCCCc2ccccc2)c(=O)c2cc3occc3n12 (stereo not given)
[1]
  EC50: > 195 µM (not active)

## COc1ccc2oc(=O)c(N3C(=O)c4ccccc4C3=O)cc2c1
[1]
  EC50: > 195 µM (not active)

## COc1ccc(/N=C2/SC(C(=O)N3CCN(c4ccccc4)CC3)CC(=O)N2C)cc1 (stereo not given)
[1]
  EC50: > 195 µM (not active)

## CC(Oc1ccc(Br)cc1)C(=O)Nc1ccc(S(=O)(=O)NC2=NCCCCC2)cc1 (stereo not given)
[5]
  EC50: 4.66 µM (active)

## CCN1CC=C2C(C#N)=C(N)C(C#N)(C#N)[C@H](c3ccoc3)[C@H]2C1
Cytochrome P450 1A2
  AC50: 39.8 µM (inconclusive)
Cytochrome P450 2C19
  AC50: 39.8 µM (inconclusive)

## COc1ccc(NC(=O)CCc2nnc3ccc(N4CCC(C)CC4)nn23)cc1OC
[1]
  EC50: > 195 µM (not active)

## Cc1cc(C)nc(NNC2=CC(=[N+]3CCCCC3)CC(C)(C)C2)n1
[1]
  EC50: > 195 µM (not active)

## Cc1ccc2c(c1)N(C(=O)CCC(=O)N1CCN(c3ccccn3)CC1)CCO2
[5]
  EC50: > 53 µM (inactive)
